Values joined by “and” are separate entries in the source; they are usually repeats but may differ in a detail not shown here. Identical values can stand only once.
Tests used:
transformed corn callus = assay: [^14C]-glyphosate metabolism assay in corn callus
From the text: A [^14C]-glyphosate metabolism assay was used for determining whether transformed corn callus tissues contain functioning forms of these enzymes. The assay was developed to screen large numbers of corn callus samples. Callus was obtained from Monsanto Company and Dekalb Seed Company corn transformation groups. The Monsanto callus samples, individually designated as callus lines “19nn-nn-nn” in Table 16, were produced from HI II×B73 corn embryos. Callus samples were bombarded with complete covalently closed circular recombinant plant transformation vector plasmid DNA or with linear DNA fragments isolated from such plasmids 25-50 days after embryo isolation. Transformed lines were identified 8-14 weeks after bombardment. These lines were sub-cultured on fresh media every 2 weeks and were 5-7 months old when used in the metabolism assay. The Dekalb callus lines OO, OR, OW, OX, and OY were obtained from HI II×AW embryos. All line designations correspond to the recombinant plasmid or linear fragment used for ballistic transformation of callus tissue as noted in the legend to Table 16.
4.5 mCi of N-phosphono-[^14C]-methylglycine ([^14C]-glyphosate) was obtained from the Monsanto Radiosynthesis group in a 1.5 mM aqueous solution, having a specific radioactivity of 39.4 mCi/mM (5.2×10^5 dpm/microgram). The sample was identified with code number C-2182.2. A stock solution sterilized by filtration through a 0.2-micron Acrodisk (Gelman no. 4192) was prepared by combining 2.5 mL [^14C]-glyphosate (3.3×10^8 dpm) with 2.5 mL of corn callus growth medium (N6 medium) and 5.0 mg of Mon 0818 surfactant. [^14C]-glyphosate in the resulting dose solution was 0.75 mM. The N6 medium was described by Chu et al. (1975) and was prepared using salts and vitamins obtained from Sigma Chemical Company, St. Louis, Mo. Mon 0818 surfactant is ethoxylated tallowamine, the surfactant used in Roundup herbicide. The dose solution was subjected to HPLC analysis as described in Example 2. […] Two additional dose solutions were prepared using these reagents, each of which were scaled three fold to 15 ml volumes based on the preparation method described above.
Under aseptic conditions, corn callus samples were transferred to individual wells of sterile 48-well COSTAR™ cell culture clusters (cat. No. 3548). The individual callus samples were not weighed. However, in several cases the total weight of the callus samples in a 48-well plate was determined. Typically, the average weight of individual callus samples was approximately 200-250 mg. In each assay, a nontransformed callus sample, HI II×B73, was included as a control. 50 μL of dose solution containing 3.3×10^6 dpm of [^14C]-glyphosate was added to each callus sample. 48-well plates were sealed with parafilm and placed in a plastic bag containing a wet paper towel to provide a moist atmosphere. Bags were closed and placed in a dark drawer at 25° C. for 10 days. Each callus sample was subsequently transferred to a labeled microcentrifuge tube (VWR, 1.7-mL, cat. No. 20170-620). 1.0 mL of de-ionized water was added to each tube, and the tubes were closed and placed in round 20-tube floating microcentrifuge racks (Nalge cat. no. 5974-1015). These microfuge tubes were floated in boiling water for 30 minutes, shaken using a vortex mixer, and centrifuged for 5 minutes using a Fisher brand microcentrifuge. 120-μL supernatant samples were removed for analysis by HPLC as described below. The samples were injected using a Waters WISP autoinjector.

[1] = test system: tobacco lines 33476, 36779, 37235; assay: [^14C]-glyphosate metabolism in R1 tobacco plants; assay type: in vivo
From the text: Seed from Ro transformation events were obtained after self crossing in growth chamber conditions. Ro seed were cured and planted to generate R1 progeny. Source leaves of R1 progeny at the five leaf stage were exposed to [^14C]-glyphosate by spotting a 2 microliter sample onto each vein (50 microliters of [^14C]-glyphosate Na+ salt, 517,000 dpm/microgram, 0.42 microgram/microliter mixed with 10 microliters of glycerol). Each leaf received several spots depending on the number of veins on that leaf. Three days later 15 additional 2 microliter spots were applied to each leaf. Two weeks later, five 2 microliter spots were applied to each of two leaves on each plant. These were new leaves and were not the older leaves to which glyphosate was initially applied. Five days after this last application, about 300 milligrams of tissue was sampled from two sink leaves on each plant. The samples from each plant were homogenized in separate 1 ml volumes of deionized water, centrifuged at 9,000 RPM in a microcentrifuge, and the aqueous volumes were collected and stored on ice. Extracts were analyzed by HPLC for the presence of [^14C] labeled metabolites as in Example 2. […] In addition, the lack of a bleaching effect in line 36779 after exposure to glyphosate is consistent with the presence of functional GOX and PhnO enzymes and the absence of detectable [^14C]-AMPA.

[2] = test system: recombinant cotton line 4268 (GOX/PhnO); assay: [^14C]-glyphosate metabolism in cotton line 4268; assay type: in vivo, cotton (Gossypium hirsutum L.); conditions: GOX/PhnO Plants
Procedure: The metabolism of [^14C]-glyphosate in recombinant cotton lines 4268 (GOX/PhnO) and 3753 (EPSPS/GOX) was also studied. Plants in this study were treated as indicated above for cotton line 4416, by applying droplets of ROUNDUP ULTRA fortified with [^14C]-glyphosate to a single leaf on each plant at the three to four leaf stage. Treated leaves were harvested and rinsed with water, then ground and extracted, and extracts were analyzed by HPLC as described above for the presence of [^14C]-glyphosate, [^14C]-AMPA, and N-acetyl-[^14C]-AMPA. New growth, including the meristem and new leaves that emerged following application were also extracted and analyzed.

[3] = FIG. 3, callus transformed with GOX and AMPA acetyltransferase
[4] = control callus HI II×B73, no inserted genes

## N-phosphono-methyl-glycine [Glyphosate]
Transformed corn callus; [3]
  N-acetyl-[^14C]AMPA, of total observed [^14C]: 4.54%
  [^14C] AMPA, of total observed [^14C]: 1.71%
  [^14C] glyphosate, of total observed [^14C]: 92.5%
Transformed corn callus; callus OR516 transformed with pMON32926
  Percent N-Acetyl-[^14C]-AMPA: 0.50-4.54%
Transformed corn callus; callus OR516 transformed with pMON32926, listed as [^14C]-glyphosate
  Percent N-Acetyl-[^14C]-AMPA: 1.91%
Transformed corn callus; callus line transformed with pMON32571
  Percent [^14C]-AMPA: 2.89%
Transformed corn callus; callus line transformed with pMON32573
  Percent N-Acetyl-[^14C]-AMPA: 0.39%
Transformed corn callus; callus line transformed with pMON32932
  Percent N-Acetyl-[^14C]-AMPA: 0.28%
Transformed corn callus; callus line transformed with pMON32938
  Percent N-Acetyl-[^14C]-AMPA: 0.21%
Transformed corn callus; callus line transformed with pMON32946
  Percent [^14C]-AMPA: 2.51%
Transformed corn callus; callus line transformed with pMON32947
  Percent [^14C]-AMPA: 1.99%
Transformed corn callus; callus line transformed with pMON32952
  Percent N-Acetyl-[^14C]-AMPA: 0.37%
Transformed corn callus; callus lines transformed with pMON32571, listed as [^14C]-glyphosate
  Percent N-Acetyl-[^14C]-AMPA: 0.22% and 0.25%
Transformed corn callus; callus lines transformed with pMON32931, listed as [^14C]-glyphosate
  Percent N-Acetyl-[^14C]-AMPA: 0.40% and 0.75% and 0.55%
Transformed corn callus; callus lines transformed with pMON32936, listed as [^14C]-glyphosate
  Percent [^14C]-AMPA: 2.29% and 3.05% and 2.15% and 2.06%
Transformed corn callus; callus lines transformed with pMON32938, listed as [^14C]-glyphosate
  Percent [^14C]-AMPA: 2.41% and 2.90%
Transformed corn callus; callus lines transformed with pMON32946, listed as [^14C]-glyphosate
  Percent N-Acetyl-[^14C]-AMPA: 0.77% and 0.85%
Transformed corn callus; callus lines transformed with pMON32947, listed as [^14C]-glyphosate
  Percent N-Acetyl-[^14C]-AMPA: 0.60% and 0.71%
Transformed corn callus; [4]
  N-acetyl-[^14C]-AMPA produced: no detectable levels
  [^14C]-AMPA produced: only background levels
[1]; line 33476 (GOX)
  [^14C] labeled metabolites in sink leaf extract: only [^14C]-AMPA
[1]; line 36779
  [^14C] labeled metabolites in sink leaf extract: Only N-acetyl-[^14C]-AMPA
[1]; line 37235
  [^14C] labeled metabolites in sink leaf extract: non-metabolized [^14C]-glyphosate as well as a trace but measurable amount of [^14C]-AMPA
[2]; listed as [^14C]-Glyphosate
  % [^14C] metabolite in Glyphosate Treated Leaf Extract: AMPA: 3.2% and 5.7% and 3.0% and 4.8%
  % [^14C] metabolite in Glyphosate Treated Leaf Extract: Glyphosate: 54.4% and 58.3% and 76.7% and 63.9%
  % [^14C] metabolite in New Growth Extract: AMPA: 1.2% and 1.0% and 1.5%
  % [^14C] metabolite in New Growth Extract: Glyphosate: 0.8% and 1.1% and 3.4%
  % [^14C] metabolite in New Growth Extract: N-Acetyl-AMPA: 94.7% and 91.0% and 89.9% and 91.5%
[2]; listed as [^14C]-glyphosate
  % [^14C] metabolite in New Growth Extract: N-Acetyl-AMPA: 90-95%

Source: patent publication US7554012B2, “Plants and plant cells exhibiting resistance to AMPA, and methods for making the same” (priority 1998, dated 2009)
